Like-named read-outs stand apart in the source and are kept apart here. Values belong to the compound of their own block, whether it stands above or below them.
Key:
[1] = test system: human dermal fibroblasts (CRL-2097); conditions: 50 µM
Experimental: (§1) DMSO and water were the solvent controls for the artemisinic compounds and teas, respectively. Fibroblasts (passages 10–14) were seeded in 6-well plates in 2 mL medium at a density of 6250 cells/cm^2. After overnight attachment, media were aspirated and replaced with test drugs in growth media at the indicated concentrations and incubated at 37 °C and 5% CO2 in high humidity.
(§2) After 1 or 4 d of treatment, media were aspirated and replaced with media containing resazurin (Thermo Fisher Scientific B21187.03) at a final concentration of 25 µg/mL (stock solution 0.15 mg/mL in DPBS). […] Fluorescence readings were normalized to the appropriate solvent controls.

[2] = test system: ACTA2, COL1A1, COL3A1, TGFB1, TGFB2, TGFBR1, MMP1, and MMP3; test: qRT-PCR gene expression in drug-treated fibroblasts: panel of fibrosis-related marker genes; type: cell-based, human; conditions: 4 d treatment; 50 µM
Experimental: Drug treatments were performed as follows. […] RNA from cells after 4 d of drug treatment was isolated using the NucleoSpin RNA/protein mini kit (Macherey-Nagel, Allentown, PA, USA, 740933.50) according to the manufacturer’s instructions. The concentration of isolated RNA was measured using a Nanodrop 2000c Spectrophotometer (Thermo Scientific). […] A SYBR-based PowerTrack master mix (Thermo Fisher Scientific A46012) was used to perform RT-qPCR on a QuantStudio 6 Pro Real-Time PCR system (Thermo Fisher Scientific) in 10 μL reactions. The thermal protocol was as follows: 95 °C for 2 min, then 40 cycles of 95 °C for 15 s and 60 °C for 60 s. PCR primer sequences are listed in Table 2 and were the same as used in Larson et al., 2019 [17]. Fold change in gene expression was determined using the ΔΔCT method with GAPDH as the housekeeping gene.

[3] = test system: smooth-muscle α-actin (α-SMA); test: Immunofluorescence staining for α-SMA in treated fibroblasts; type: cell-based, human; conditions: 4 d treatment, 50 µM drug or tea (A. afra 1/4X)
Description: After 1 and 4 d, cells were fixed with paraformaldehyde and stained for immunofluorescence using primary mouse anti-α-SMA (Santa Cruz Biotechnology, Dallas, TX, USA, sc-32251) and secondary goat anti-mouse IgG AlexaFluor488-conjugated antibodies (Thermo Fisher Scientific A-11001), and DNA was counterstained with Hoechst 33342 as previously described.

[4] = GC-MS analysis of culture media incubated with drugs in the absence of cells; type: physicochemical
[5] = test system: human dermal fibroblasts (CRL-2097); test: Resazurin viability assay of human dermal fibroblasts; conditions: for change in fibroblast viability: 50 µM
Experimental: as §1, §2

[6] = test system: TGFB2; test: qRT-PCR gene expression in drug-treated fibroblasts: TGFB2; type: cell-based, human; conditions: 4 d treatment; 50 µM; GAPDH internal control
Experimental: (§3) DMSO and water were the solvent controls for the artemisinic compounds and teas, respectively. Fibroblasts (passages 10–14) were seeded in 6-well plates in 2 mL medium at a density of 6250 cells/cm^2. After overnight attachment, media were aspirated and replaced with test drugs in growth media at the indicated concentrations and incubated at 37 °C and 5% CO2 in high humidity. After 4 d of drug treatment, cells were harvested, washed with 1× Dulbecco’s phosphate-buffered saline (DPBS; Thermo Fisher Scientific 14190136), snap frozen in liquid nitrogen, and stored at −80 °C until the time of RNA extraction for analysis.
(§4) RNA from cells after 4 d of drug treatment was isolated using the NucleoSpin RNA/protein mini kit (Macherey-Nagel, Allentown, PA, USA, 740933.50) according to the manufacturer’s instructions. The concentration of isolated RNA was measured using a Nanodrop 2000c Spectrophotometer (Thermo Scientific). Complementary DNA (cDNA) was synthesized from RNA using a QuantiTect reverse transcription kit (Qiagen, Germantown, MD, USA, 205313) following the manufacturer’s instructions. A SYBR-based PowerTrack master mix (Thermo Fisher Scientific A46012) was used to perform RT-qPCR on a QuantStudio 6 Pro Real-Time PCR system (Thermo Fisher Scientific) in 10 μL reactions.

[7] = test system: MMP3; test: qRT-PCR gene expression in drug-treated fibroblasts: MMP3; type: cell-based, human; conditions: 4 d treatment; 50 µM; GAPDH internal control
Experimental: as §3, §4

[8] = test system: TGFBR1; test: qRT-PCR gene expression in drug-treated fibroblasts: TGFBR1; type: cell-based, human; conditions: 4 d treatment; 50 µM; GAPDH internal control
Experimental: as §3, §4

[9] = test system: MMP1; test: qRT-PCR gene expression in drug-treated fibroblasts: MMP1; type: cell-based, human; conditions: 4 d treatment; 50 µM; GAPDH internal control
Experimental: as §3, §4

[10] = Thin-layer chromatography of media from drug-treated fibroblasts; type: in vitro ADME, human; conditions: fibroblast cultures, 50 µM
Experimental: Media were extracted 1:1 with dichloromethane overnight, after which the solvent was separated and dried. Extracts (equivalent to 1 mL media) were resuspended in dichloromethane, spotted on Si-gel 60 F254 plates (EMD Millipore, Burlington, MA, USA, cat #1.05735.0001), and run in a mobile phase of 5:11:4 dichloromethane–hexane–acetone plus 0.5% v/v acetic acid. Plates were stained with p-anisaldehyde reagent (75 mL ethanol, 2.5 mL sulfuric acid, 1 mL acetic acid, and 2 mL p-anisaldehyde (Sigma Aldrich, St. Louis, MO, USA, A88107-100G)) and heated for 10 min at 105 °C.

[11] = cell-free culture media incubated 4 days, 50 µM ART drugs, GC-MS
[12] = cell-free culture media, 50 µM ART drugs, GC-MS
[13] = 1 d treatment, 50 µM drug or tea normalized to 50 µM ART, % of solvent control

SMILES: CO[C@H]1O[C@@H]2O[C@@]3(C)CC[C@H]4[C@H](C)CC[C@@H]([C@H]1C)[C@@]24OO3 [AM, artemether]
change in fibroblast viability [1]: no significant change

SMILES: C[C@@H]1CC[C@H]2[C@@H](C)C(=O)O[C@@H]3O[C@@]4(C)CC[C@@H]1[C@]32OO4 [ART, artemisinin]
effects on the expressions of other markers (other than MMP1) [2]: lacked effects | α-SMA staining compared to solvent control [3]: substantial increase | concentration of dART in culture media, Day 4 [4, 11]: 500 ng/mL | concentration of the treatment drug (ART for the tea) in culture media, Day 4 ([4]; cell-free culture media incubated 4 days, 50 µM ART drugs, GC-MS, ND = not detected): 420 ng/mL | concentration of dART in culture media, Day 0 [4, 12]: 0 ng/mL | ART disappeared ([4]; day 4, cell-free culture media): > 99% | change in fibroblast viability ([5]; 1 d exposure, vs solvent control): no significant change | decrease in fibroblast viability ([5]; 4 d treatment, 50 µM drug or tea infusion, % of respective control): about 20%

SMILES: C[C@@H]1CC[C@H]2[C@@H](C)C(=O)O[C@@H]3O[C@@]4(C)CC[C@@H]1[C@]32O4 [dART, deoxyartemisinin]
change in fibroblast viability ([5]; 4 d treatment, vs control): no change

Further lines, with some results ahead:

concentration of dART in culture media, Day 4 [4, 11]: 1500 ng/mL | concentration of dART in culture media, Day 0 [4, 12]: 0 ng/mL
SMILES: C[C@H]1[C@H](OC(=O)CCC(=O)O)O[C@@H]2O[C@@]3(C)CC[C@H]4[C@H](C)CC[C@@H]1[C@@]24OO3 [AS, artesunate]
α-SMA staining compared to solvent control [3]: considerably decreased | decrease in fibroblast viability [5, 13]: ~35%

concentration of dART in culture media, Day 4 [4, 11]: 6900 ng/mL | concentration of dART in culture media, Day 0 [4, 12]: 0 ng/mL | treatment drug remaining in media (TLC) ([10]; after day 1): nearly gone | dART in media (TLC) ([10]; day 4): observed | treatment drug (ART for the tea) remaining in media (TLC) ([10]; day 4): undetectable
SMILES: C[C@H]1[C@@H](O)O[C@@H]2O[C@@]3(C)CC[C@H]4[C@H](C)CC[C@@H]1[C@@]24OO3 [DHA, dihydroartemisinin]
decrease in TGFB2 expression, fold change vs. solvent control [6]: 3.7 fold | increase in MMP3 expression, fold change vs. solvent control [7]: 51.8 fold | α-SMA staining compared to solvent control [3]: considerably decreased | decrease in TGFBR1 expression, fold change vs. solvent control [8]: 4 fold | increase in MMP1 expression, fold change vs. solvent control [9]: 8 fold | decrease in fibroblast viability [5, 13]: ~45%
